The source of these data is patent publication US20100183604A1, “PREVENTIVE/REMEDY FOR CANCER” (TAKEDA PHARMACEUTICAL COMPANY LIMITED, priority 2007, published 2010).

The test system of assay [1] is BT474 cells highly sensitive to trastuzumab. As to the kind of experiment: Viable cell count after HER2 inhibitor addition (no siRNA), high sensitive cell line. It is filed as cell-based, human. Particulars: 5 days; for growth suppression: 1 μmol/L, no siRNA; for concentration dependence of growth (proliferation) suppression: range of final concentrations, similar level in both lines. As to the method:
(§1) After culture for 5 days at 37° C., 5% CO2, the number of viable cells was counted.

The subject of assay [2] is trastuzumab low sensitive BT-474 cells. As to the kind of experiment: Viable cell count after HER2 inhibitor addition (no siRNA), low sensitive cell line. It is filed as cell-based, human. Particulars: 5 days; for growth suppression: 1 μmol/L, no siRNA; for concentration dependence of growth (proliferation) suppression: range of final concentrations, similar level in both lines. As to the method:
as §1

“Also recorded” adds a separate entry of the source.

Regarding `CC(C)(O)CC(=O)NCCn1ccc2ncnc(Nc3ccc(Oc4cccc(C(F)(F)F)c4)c(Cl)c3)c21` [compound A, N-{2-[4-({3-chloro-4-[3-(trifluoromethyl)phenoxy]phenyl}amino)-5H-pyrrolo[3,2-d]pyrimidin-5-yl]ethyl}-3-hydroxy-3-methylbutanamide], in assay [1], the growth suppression result is listed as “complete suppression of growth” and the “concentration dependence of growth (proliferation) suppression” value (from here on “concentration dependence of growth”) is recorded as “suppressed in a concentration-dependent manner; also recorded: concentration-dependent growth suppression”. For the same compound, in assay [2], the growth suppression entry was “complete suppression of growth” and the “concentration dependence of growth” value is reported as “suppressed in a concentration-dependent manner; also recorded: concentration-dependent growth suppression”.

For the compound `CS(=O)(=O)CCNCc1ccc(-c2ccc3ncnc(Nc4ccc(OCc5cccc(F)c5)c(Cl)c4)c3c2)o1` [lapatinib], the growth suppression entry in assay [1] and in assay [2] was “complete suppression of growth” in each case. Further, the “concentration dependence of growth” value in assay [1] and in assay [2] was “suppressed in a concentration-dependent manner; also recorded: concentration-dependent growth suppression” each time.
